Measured values from ChEMBL document CHEMBL3351804, “Development of 2-aryl substituted quinazolin-4(3H)-one, pyrido[4,3-d]pyrimidin-4(3H)-one and pyrido[2,3-d]pyrimidin-4(3H)-one derivatives as microsomal prostaglandin E(2) synthase-1 inhibitors” (Bioorg Med Chem Lett, 2014).
pIC50: −log10 of the molar value. One block for each compound: values may come before it.

What was measured:
Prostaglandin E synthase [1] = molecular target: T1, Prostaglandin E synthase (Homo sapiens, UniProt O14684); assay: Inhibition of human recombinant mPGES-1 expressed in CHO cells using PGH2 as substrate incubated for 10 mins prior to substrate addition measured after 1 min
T1 sequence (O14684 whole entry): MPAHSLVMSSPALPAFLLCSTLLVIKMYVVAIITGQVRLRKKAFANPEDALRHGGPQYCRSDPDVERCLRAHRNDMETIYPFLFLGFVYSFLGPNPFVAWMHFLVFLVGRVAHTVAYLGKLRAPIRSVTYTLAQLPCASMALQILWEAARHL

[2] = molecular target: T2, Prostaglandin E synthase (Homo sapiens) (UniProt O14684); assay: Inhibition of human recombinant mPGES-1 expressed in CHO cells using PGH2 as substrate at 1 uM incubated for 10 mins prior to substrate addition measured after 1 min
T2 sequence (whole entry): T1 sequence (O14684 whole entry)

[3] = molecular target: T2, Prostaglandin E synthase (Homo sapiens); assay: Inhibition of human recombinant mPGES-1 expressed in CHO cells using PGH2 as substrate at 10 uM incubated for 10 mins prior to substrate addition measured after 1 min; assay type: cell-based
Prostaglandin E synthase [4] = molecular target: T1, Prostaglandin E synthase; assay: Inhibition of mPGES-1 in human A549 cells assessed as inhibition of IL-1beta-induced PGE2 production incubated for 30 mins prior to IL-1beta challenge measured after 18 to 24 hrs; assay type: cell-based
[5] = Inhibition of guinea pig recombinant mPGES-1; parameters: species or system Cavia porcellus
Prostaglandin E synthase [6] = molecular target: T1, Prostaglandin E synthase; assay: Inhibition of mPGES-1 in human whole blood assessed as inhibition of LPS-induced PGE2 production after overnight incubation
Prostaglandin E synthase [7] = molecular target: T1, Prostaglandin E synthase; assay: Inhibition of mPGES-1 in human A549 cells assessed as inhibition of IL-1beta-induced PGE2 production incubated for 30 mins prior to IL-1beta challenge measured after 18 hrs by plate reader analysis; assay type: cell-based
Prostaglandin E synthase [8] = molecular target: T1, Prostaglandin E synthase; assay: Inhibition of mPGES-1 in human whole blood assessed as inhibition of LPS-induced PGE2 production incubated for 30 mins prior to LPS challenge measured after 20 to 24 hrs by LC/MS/MS analysis
Prostaglandin E synthase [9] = molecular target: T1, Prostaglandin E synthase; assay: Inhibition of human mPGES-1
Prostaglandin E synthase [10] = molecular target: T1, Prostaglandin E synthase; assay: Inhibition of mPGES-1 in human A549 cells; assay type: cell-based
Prostaglandin E synthase [11] = molecular target: T1, Prostaglandin E synthase; assay: Inhibition of mPGES-1 in human A549 cells using arachidonic acid as substrate assessed as inhibition of IL-1beta/TNF-alpha-induced PGE2 production incubated for 30 mins prior to substrate addition measured after 30 mins by EIA; assay type: cell-based

pIC50 (Prostaglandin E synthase [1]): 6.75
Compound: O=C(Nc1ccc2cnn(-c3ccc(Br)cc3)c(=O)c2c1)c1c(F)cccc1Cl

pIC50 (Prostaglandin E synthase [1]): 7.44
Compound: CC(C)C(=O)NCc1ccc(Cl)c(-c2nc3cc(Cl)c(-c4ccc(C(F)(F)F)cc4)cc3c(=O)[nH]2)c1

pIC50 (Prostaglandin E synthase [4]): 7.64
pIC50 (Prostaglandin E synthase [1]): 7.80
Compound: CC(C)C(=O)NCc1ccc(Cl)c(-c2nc3cc(-c4ccc(C(F)(F)F)nc4)ccc3c(=O)[nH]2)c1

pIC50 (Prostaglandin E synthase [1]): 8.30
Compound: CC(C)(C)C(=O)NCc1ccc(Cl)c(C(=O)Nc2ccc3cnn(-c4ccc(C(F)(F)F)cc4)c(=O)c3c2)c1

pIC50 (Prostaglandin E synthase [1]): 7.26
Compound: CC(C)C(=O)NCc1ccc(Cl)c(-c2nc3ccc(-c4ccc(C(F)(F)F)cc4)cc3c(=O)[nH]2)c1

pIC50 (Prostaglandin E synthase [4]): 6.95
pIC50 (Prostaglandin E synthase [1]): 8.40
Compound: CC(C)C(=O)NCc1cnc(C(F)F)c(-c2nc3cc(-c4ccc(C(F)(F)F)cc4)ncc3c(=O)[nH]2)c1

pIC50 (Prostaglandin E synthase [4]): 7.48
pIC50 (Prostaglandin E synthase [1]): 8.22
Compound: CC(C)C(=O)NCc1cnc(C(F)F)c(-c2nc3cc(-c4ccc(C(F)(F)F)cc4)ccc3c(=O)[nH]2)c1

pIC50 (Prostaglandin E synthase [1]): 6.32
Compound: CC(C)C(=O)NCc1ccc(Cl)c(-c2nc3cc(Cl)c(-c4ccncc4)cc3c(=O)[nH]2)c1

pIC50 (Prostaglandin E synthase [4]): 8.00
pIC50 (Prostaglandin E synthase [1]): 8.15
pIC50 (Prostaglandin E synthase [6]): 6.63
Compound: CC(C)C(=O)NCc1ccc(Cl)c(-c2nc3cc(-c4ccc(C(F)(F)F)cc4)ccc3c(=O)[nH]2)c1

pIC50 (Prostaglandin E synthase [1]): 7.38
Compound: CC(C)C(=O)NCc1ccc(Cl)c(-c2nc3cc(Cl)ccc3c(=O)[nH]2)c1

pIC50 (Prostaglandin E synthase [7]): 7.92
pIC50 (Prostaglandin E synthase [8]): 7.92
Compound: Cc1nc(NC(=O)c2cc(CNC(=O)C(C)C)cnc2C(F)F)[nH]c1-c1ccc(C(F)(F)F)cc1

pIC50 (Prostaglandin E synthase [1]): 7.13
Compound: CC(C)C(=O)NCc1ccc(Cl)c(-c2nc3cc(N4CCC(C(F)(F)F)CC4)ccc3c(=O)[nH]2)c1

pIC50 (Prostaglandin E synthase [4]): 7.96
pIC50 (Prostaglandin E synthase [1]): 8.00
pIC50 (Prostaglandin E synthase [6]): 6.48
Compound: CC(C)C(=O)NCc1ccc(Cl)c(-c2nc3nc(-c4ccc(C(F)(F)F)cc4)ccc3c(=O)[nH]2)c1

pIC50 (Prostaglandin E synthase [9]): 10.00
pIC50 (Prostaglandin E synthase [10]): 8.92
Compound: COCc1nc2c(C(=O)Nc3cccc(Cl)c3C)cc(NC(=O)c3c(Cl)cccc3C(F)(F)F)cc2[nH]1

pIC50 (Prostaglandin E synthase [11]): 6.30
Compound: O=C(Nc1ccc(C(F)(F)F)cn1)c1cccc(NC(=O)c2ccccc2C(F)(F)F)c1

pIC50 (Prostaglandin E synthase [1]): 6.80
Compound: O=C(Nc1ccnc2c(Nc3ccc(C(F)(F)F)cc3)nsc12)c1c(F)cccc1Cl

inhibition [2]: 21%
inhibition [3]: 74%
Compound: CC(C)C(=O)NCc1ccc(Cl)c(-c2nc3cc(NC(=O)C4CC4)ccc3c(=O)[nH]2)c1

pIC50 (Prostaglandin E synthase [1]): 7.59
Compound: CC(C)C(=O)NCc1ccc(Cl)c(-c2nc3cc(C(F)(F)F)ccc3c(=O)[nH]2)c1

pIC50 (Prostaglandin E synthase [1]): 6.95
Compound: COc1cc2c(=O)[nH]c(-c3cc(CNC(=O)C(C)C)ccc3Cl)nc2cc1Cl

pIC50 (Prostaglandin E synthase [1]): 8.52
Compound: CC(C)(C)C(=O)NCc1ccc(Cl)c(C(=O)Nc2ccnc3c(Nc4ccc(C(F)(F)F)cc4)nsc23)c1

Further lines, the compound ahead of its results:

Compound: CC(C)C(=O)NCc1ccc(Cl)c(-c2nc3cc(Cl)c(N4CC(C(=O)NC(C)(C)C)C4)cc3c(=O)[nH]2)c1
pIC50 (Prostaglandin E synthase [1]): 7.23

Compound: CC(C)C(=O)NCc1ccc(Cl)c(-c2nc3cc(C4CC4)ccc3c(=O)[nH]2)c1
pIC50 (Prostaglandin E synthase [1]): 7.24

Compound: CC(C)C(=O)NCc1ccc(Cl)c(-c2nc3cc(C(N)=O)ccc3c(=O)[nH]2)c1
inhibition [2]: 14%
inhibition [3]: 16%

Compound: CC(C)C(=O)NCc1ccc(Cl)c(-c2nc3cc(Cl)c(N4CC[C@@H](O)C4)cc3c(=O)[nH]2)c1
inhibition [2]: 67%
inhibition [3]: 95%

Compound: CC(C)C(=O)NCc1ccc(Cl)c(-c2nc3cc(N)ccc3c(=O)[nH]2)c1
inhibition [2]: 16%
inhibition [3]: 70%

Compound: CC(C)C(=O)NCc1ccc(Cl)c(-c2nc3cc([N+](=O)[O-])ccc3c(=O)[nH]2)c1
pIC50 (Prostaglandin E synthase [1]): 7.20

Compound: COc1ccc2c(=O)[nH]c(-c3cc(CNC(=O)C(C)C)ccc3Cl)nc2c1
pIC50 (Prostaglandin E synthase [1]): 6.52

Compound: CC(C)C(=O)NCc1ccc(Cl)c(-c2nc3cc(Cl)c(N4CC[C@H](O)C4)cc3c(=O)[nH]2)c1
inhibition [2]: 42%
inhibition [3]: 91%

Compound: CC(C)C(=O)NCc1ccc(Cl)c(-c2nc3ccccc3c(=O)[nH]2)c1
inhibition [2]: 17%
inhibition [3]: 67%

Compound: N#Cc1cccc(C#N)c1-c1nc2c3ccc(Cl)cc3c3ccccc3c2[nH]1
pIC50 [5]: 9.05

Compound: CC(C)C(=O)NCc1ccc(Cl)c(-c2nc3cc(Cl)c(N4CCC(C(F)F)CC4)cc3c(=O)[nH]2)c1
pIC50 (Prostaglandin E synthase [1]): 7.62

Compound: CC(C)C(=O)NCc1ccc(Cl)c(-c2nc3cc(Cl)c(C4CC4)cc3c(=O)[nH]2)c1
pIC50 (Prostaglandin E synthase [1]): 7.49

Compound: CC(C)C(=O)NCc1ccc(Cl)c(-c2nc3cc(Cl)c(N4CCNC(=O)C4)cc3c(=O)[nH]2)c1
inhibition [2]: 30%
inhibition [3]: 79%

Compound: CC(C)C(=O)NCc1ccc(Cl)c(-c2nc3cc(F)ccc3c(=O)[nH]2)c1
inhibition [2]: 52%
inhibition [3]: 98%

Compound: CC(C)C(=O)NCc1ccc(Cl)c(-c2nc3cc(Cl)c(N4CCOCC4)cc3c(=O)[nH]2)c1
pIC50 (Prostaglandin E synthase [1]): 6.58

Compound: CNC(=O)C1CCN(c2cc3c(=O)[nH]c(-c4cc(CNC(=O)C(C)C)ccc4Cl)nc3cc2Cl)CC1
inhibition [2]: 28%
inhibition [3]: 76%

Compound: CC(=O)O[C@H]1CCN(c2cc3c(=O)[nH]c(-c4cc(CNC(=O)C(C)C)ccc4Cl)nc3cc2Cl)C1
pIC50 (Prostaglandin E synthase [1]): 6.61

Compound: CC(C)C(=O)NCc1ccc(Cl)c(-c2nc3cc(Cl)c(N4CCC(O)CC4)cc3c(=O)[nH]2)c1
pIC50 (Prostaglandin E synthase [1]): 6.15

Compound: CC(C)C(=O)NCc1ccc(Cl)c(-c2nc3cc(Cl)c(N4CCN(C)CC4)cc3c(=O)[nH]2)c1
inhibition [2]: 41%
inhibition [3]: 75%

Compound: CC(C)C(=O)NCc1ccc(Cl)c(-c2nc3cc(Br)ccc3c(=O)[nH]2)c1
pIC50 (Prostaglandin E synthase [1]): 7.44

Compound: CC(=O)O[C@@H]1CCN(c2cc3c(=O)[nH]c(-c4cc(CNC(=O)C(C)C)ccc4Cl)nc3cc2Cl)C1
pIC50 (Prostaglandin E synthase [1]): 6.61
